From US6673786B1, “Tryptase inhibitors” (Altana Pharma AG, priority 1999, dated 2004)
pKi: −log10 of the molar value. Structures can show the parent of a compound that is named as a salt.

Target: human tryptase
Experiment: Inhibition of human tryptase (apparent dissociation constant, chromogenic substrate tos-Gly-Pro-arg-pNA)
Format: biochemical
Details: apparent dissociation constant in presence of substrate; heparin 0.1-50 μg/ml; equilibrium conditions; read-out: Klapp
Excerpt: The documented pathophysiological effects of mast cell tryptase are caused directly by the enzymatic activity of the protease. Accordingly, they are reduced or blocked by inhibitors which inhibit the enzymatic activity of the tryptase. A suitable measure for the affinity of a reversible inhibitor to the target protease is the equilibrium dissociation constant Ki of the enzyme-inhibitor complex. This Ki value can be determined via the effect of the inhibitor on the tryptase-induced cleavage of a chromogenic peptide-p-nitroanilide substrate or a fluorogenic peptide-aminomethylcoumarin substrate.
The dissociation constants for the tryptase-inhibitor complexes are determined under equilibrium conditions in accordance with the general proposals of Bieth (Bieth J G, Pathophysiological Interpretation of kinetic constants of protease inhibitors, Bull. Europ. Physiopath. Resp. 16:183-195, 1980) and the methods of Sommerhoff et al. (Sommerhoff C P et al., A Kazal-type inhibitor of human mast cell tryptase: Isolation from the medical leech Hirudo medicinalis, characterization, and sequence analysis, Biol. Chem. Hoppe-Seyler 375: 685-694, 1994).
Human tryptase is isolated from lung tissue or prepared recombinantly; the specific activity of the protease, determined by titration, is usually greater than 85% of the theoretical value. In the presence of heparin (0.1-50 μg/ml) for stabilizing the protease, constant amounts of the tryptase are incubated with increasing amounts of the inhibitors. After an equilibrium between the reaction partners has formed, the remaining enzyme activity after addition of the peptide-p-nitroanilide substrate tos-Gly-Pro-arg-pNA is determined and the cleavage of the latter is monitored at 405 nm for 3 min. Alternatively, the remaining enzymatic activity can also be determined using fluorogenic substrates. The apparent dissociation constants Kiapp (i.e. in the presence of substrate) are subsequently determined by adapting the enzyme rates to the general equation for reversible inhibitors (Morrison J F, Kinetics of the reversible inhibition of enzymecatalyzed reactions by tight-binding inhibitors, Biochim. Biophys. Acta 185, 269-286, 1969) using non-linear regression:
V1V0=1−{Et+It+Kiapp−[(Et+It+Kiapp)^2−4EtIt]^½}/2Et
V1 and V0 are the rates in the presence and absence, respectively, of the inhibitor, and Et and It are the tryptase and inhibitor concentrations, respectively.
The apparent dissociation constants determined for the compounds according to the invention are shown in Table A below, where the numbers of the compounds correspond to the numbers of the compounds in the examples.

NCc1ccc(CNC(=O)N2CCN(C(=O)CN3CCC(=O)N(CC(=O)N4CCN(C(=O)NCc5ccc(CN)cc5)CC4)CCC3=O)CC2)cc1 [Compound 1, 1,5-bis-{2-[4-(4-Aminomethylbenzylaminocarbonyl)piperazin-1-yl]-2-oxoethyl}perhydro-1,5-diazocin-2,6-dione Dihydrochloride]
pKi: 8.59

NCc1ccc(CCC(=O)N2CCN(C(=O)CN3CCC(=O)N(CC(=O)N4CCN(C(=O)CCc5ccc(CN)cc5)CC4)CCC3=O)CC2)cc1 [Compound 2, 1,5-bis-{2-[4-(3-(4-aminomethylphenyl)proplonyl)piperazin-1-yl]-2-oxoethyl}perhydro-1,5-diazocin-2,6-dione Dihydrochloride]
pKi: 8.92

NCc1cccc(CCC(=O)N2CCN(C(=O)CN3CCC(=O)N(CC(=O)N4CCN(C(=O)CCc5cccc(CN)c5)CC4)CCC3=O)CC2)c1 [Compound 3, 1,5-bis-{2-[4-(3-(3-aminomethylphenyl)proplonyl)piperazin-1-yl]-2-oxoethyl}perhydro-1,5-diazocin-2,6-dione Dihydrochloride]
pKi: 8.48

NCc1ccc(OCC(=O)N2CCN(C(=O)CN3CCC(=O)N(CC(=O)N4CCN(C(=O)COc5ccc(CN)cc5)CC4)CCC3=O)CC2)cc1 [Compound 4, 1,5-bis-{2-[4-(2-(4-Aminomethylphenoxy)acetyl)perazin-1-yl]-2-oxoethyl}perhydro-1.5-diazocin-2,6-dione Dihydrochloride]
pKi: 9.10
